Measured values published in ChEMBL document CHEMBL3407376, “Identification of novel class of falcipain-2 inhibitors as potential antimalarial agents” (Bioorg Med Chem, 2015).
Calls of active or inactive are those of the source. The rule behind the calls is not given here.

Target: T1, Falcipain 2 (Plasmodium falciparum, UniProt Q9N6S8)
T1 sequence (Q9N6S8 whole entry): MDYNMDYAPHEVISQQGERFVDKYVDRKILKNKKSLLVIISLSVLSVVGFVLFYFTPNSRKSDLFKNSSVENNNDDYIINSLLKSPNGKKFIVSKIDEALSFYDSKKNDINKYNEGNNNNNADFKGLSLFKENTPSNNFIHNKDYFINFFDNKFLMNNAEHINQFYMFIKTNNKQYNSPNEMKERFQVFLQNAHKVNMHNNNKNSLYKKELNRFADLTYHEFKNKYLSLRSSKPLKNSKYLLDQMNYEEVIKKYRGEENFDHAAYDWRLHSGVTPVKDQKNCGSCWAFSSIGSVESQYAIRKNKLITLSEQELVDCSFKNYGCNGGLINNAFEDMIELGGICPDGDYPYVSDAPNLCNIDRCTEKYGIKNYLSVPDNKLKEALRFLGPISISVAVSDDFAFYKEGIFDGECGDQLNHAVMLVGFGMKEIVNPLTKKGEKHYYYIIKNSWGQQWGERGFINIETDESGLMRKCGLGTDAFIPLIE
Experiment: Inhibition of Plasmodium falciparum recombinant falcipain-2 using ZFR-AMC as substrate after 30 mins by fluorometric assay
Settings: not given

Row | Compound | Ki [µM]
1 | CC(C)C[C@H](NC(=O)[C@H](CC(C)C)NC(=O)N1CCOCC1)C(=O)N[C@H](C(=O)N1CCN=C1COc1ccc(F)cc1)c1ccccc1 | 7
2 | CC(C)C[C@H](NC(=O)CN1CCC(O)CC1)C(=O)N[C@@H](CC(C)C)C(=O)N[C@@H](Cc1c[nH]c2ccccc12)C(=O)N1CCC[C@H]1COc1ccc(F)cc1 | 2.53
3 | CC(C)C[C@H](NC(=O)c1ccco1)C(=O)N[C@@H](CC(C)C)C(=O)N[C@@H](Cc1ccccc1)C(=O)NNc1ccccc1 | 0.6
4 | CC(C)C[C@H](NC(=O)CN1CCN(C)CC1)C(=O)N[C@@H](CC(C)C)C(=O)N[C@H](C(=O)N1CCC[C@H]1COc1ccc(F)cc1)c1ccccc1 | > 10
5 | CC(C)C[C@H](NC(=O)CN1CCC(CCO)CC1)C(=O)N[C@@H](CC(C)C)C(=O)N[C@H](C(=O)N1CCC[C@H]1COc1ccc(F)cc1)c1ccccc1 | > 10
6 | CC(C)C[C@H](NC(=O)[C@H](CC(C)C)NC(=O)N1CCCCC1)C(=O)N[C@H](C(=O)N1CCC[C@H]1COc1ccc(F)cc1)c1ccccc1 | 1.3
7 | CC(C)C[C@H](NC(=O)[C@H](CC(C)C)NC(=O)N1CCOCC1)C(=O)N[C@@H](Cc1ccccc1)C(=O)N1CCC[C@H]1COc1ccc(F)cc1 | 0.3
8 | CC(C)C[C@H](NC(=O)N1CCOCC1)c1nc(C(=O)N[C@@H](Cc2ccccc2)C(=O)N2CCC[C@H]2COc2ccc(F)cc2)co1 | 8.6
9 | CC(C)C[C@H](NC(=O)[C@H](CC(C)C)NC(=O)N1CCCCC1)C(=O)N[C@H](C(=O)N1CCN=C1COc1ccc(F)cc1)c1ccccc1 | 0.8
10 | COC(=O)C1CCN(CC(=O)N[C@@H](CC(C)C)C(=O)N[C@@H](CC(C)C)C(=O)N[C@@H](Cc2c[nH]c3ccccc23)C(=O)N2CCC[C@H]2COc2ccc(F)cc2)CC1 | 4.6
11 | CC(C)C[C@H](NC(=O)[C@H](CC(C)C)NC(=O)N1CCCCC1)C(=O)N[C@@H](Cc1c[nH]c2ccccc12)C(=O)N1CCN=C1COc1ccc(F)cc1 | 0.2

Tested on: Plasmodium falciparum
Experiment: Antimalarial activity against Plasmodium falciparum 3D7 infected in human erythrocytes after 48 hrs by SYBR green assay
Assay type: functional, organism-based
Settings: not given

Row | Compound | IC50
12 | CC(C)C[C@H](NC(=O)CN1CCN(C)CC1)C(=O)N[C@@H](CC(C)C)C(=O)N[C@H](C(=O)N1CCC[C@H]1COc1ccc(F)cc1)c1ccccc1 | Not Active
13 | CC(C)C[C@H](NC(=O)CN1CCC(CCO)CC1)C(=O)N[C@@H](CC(C)C)C(=O)N[C@H](C(=O)N1CCC[C@H]1COc1ccc(F)cc1)c1ccccc1 | Not Active
14 | CC(C)C[C@H](NC(=O)[C@H](CC(C)C)NC(=O)N1CCCCC1)C(=O)N[C@H](C(=O)N1CCC[C@H]1COc1ccc(F)cc1)c1ccccc1 | Not Active
15 | CC(C)C[C@H](NC(=O)N1CCOCC1)c1nc(C(=O)N[C@@H](Cc2ccccc2)C(=O)N2CCC[C@H]2COc2ccc(F)cc2)co1 | Not Active

Same assay, conditions: Plasmodium falciparum, 3D7, 48 h; read-out: IC50

Row | Compound | IC50 [µM]
16 | CC(C)C[C@H](NC(=O)[C@H](CC(C)C)NC(=O)N1CCOCC1)C(=O)N[C@H](C(=O)N1CCN=C1COc1ccc(F)cc1)c1ccccc1 | > 5
17 | CC(C)C[C@H](NC(=O)CN1CCC(O)CC1)C(=O)N[C@@H](CC(C)C)C(=O)N[C@@H](Cc1c[nH]c2ccccc12)C(=O)N1CCC[C@H]1COc1ccc(F)cc1 | 16.7
18 | CC(C)C[C@H](NC(=O)c1ccco1)C(=O)N[C@@H](CC(C)C)C(=O)N[C@@H](Cc1ccccc1)C(=O)NNc1ccccc1 | 27.9
19 | CC(C)C[C@H](NC(=O)[C@H](CC(C)C)NC(=O)N1CCOCC1)C(=O)N[C@@H](Cc1ccccc1)C(=O)N1CCC[C@H]1COc1ccc(F)cc1 | 10.2
20 | CC(C)C[C@H](NC(=O)[C@H](CC(C)C)NC(=O)N1CCCCC1)C(=O)N[C@H](C(=O)N1CCN=C1COc1ccc(F)cc1)c1ccccc1 | 5.2
21 | COC(=O)C1CCN(CC(=O)N[C@@H](CC(C)C)C(=O)N[C@@H](CC(C)C)C(=O)N[C@@H](Cc2c[nH]c3ccccc23)C(=O)N2CCC[C@H]2COc2ccc(F)cc2)CC1 | 6.7
22 | CC(C)C[C@H](NC(=O)[C@H](CC(C)C)NC(=O)N1CCCCC1)C(=O)N[C@@H](Cc1c[nH]c2ccccc12)C(=O)N1CCN=C1COc1ccc(F)cc1 | 5.5

Tested on: Plasmodium falciparum
Experiment: Antimalarial activity against Plasmodium falciparum Dd2 infected in human erythrocytes after 48 hrs by SYBR green assay
Assay type: functional
Settings: Dd2, 48 h

Row | Compound | EC50 [µM]
23 | CC(C)C[C@H](NC(=O)[C@H](CC(C)C)NC(=O)N1CCCCC1)C(=O)N[C@H](C(=O)N1CCN=C1COc1ccc(F)cc1)c1ccccc1 | 1.9
24 | CC(C)C[C@H](NC(=O)[C@H](CC(C)C)NC(=O)N1CCCCC1)C(=O)N[C@@H](Cc1c[nH]c2ccccc12)C(=O)N1CCN=C1COc1ccc(F)cc1 | 1.7

Tested on: Plasmodium falciparum
Experiment: Antimalarial activity against Plasmodium falciparum isolate MCamp infected in human erythrocytes after 48 hrs by SYBR green assay
Assay type: functional, organism-based
Settings: not given

Row | Compound | EC50 [µM]
25 | CC(C)C[C@H](NC(=O)[C@H](CC(C)C)NC(=O)N1CCCCC1)C(=O)N[C@H](C(=O)N1CCN=C1COc1ccc(F)cc1)c1ccccc1 | 1.2
26 | CC(C)C[C@H](NC(=O)[C@H](CC(C)C)NC(=O)N1CCCCC1)C(=O)N[C@@H](Cc1c[nH]c2ccccc12)C(=O)N1CCN=C1COc1ccc(F)cc1 | 6.6

Tested on: Plasmodium falciparum
Experiment: Selectivity ratio of EC50 for Plasmodium falciparum 3D7 to EC50 for Plasmodium falciparum Dd2
Assay type: functional
Settings: not given

Row | Compound | Ratio EC50
27 | CC(C)C[C@H](NC(=O)[C@H](CC(C)C)NC(=O)N1CCCCC1)C(=O)N[C@H](C(=O)N1CCN=C1COc1ccc(F)cc1)c1ccccc1 | 3
28 | CC(C)C[C@H](NC(=O)[C@H](CC(C)C)NC(=O)N1CCCCC1)C(=O)N[C@@H](Cc1c[nH]c2ccccc12)C(=O)N1CCN=C1COc1ccc(F)cc1 | 3

Tested on: Plasmodium falciparum
Experiment: Antimalarial activity against asexual stage Plasmodium falciparum assessed as growth arrest at trophozoite stage after 32 to 60 hrs relative to control
Assay type: functional, organism-based
Settings: not given

Row | Compound | Activity
29 | CC(C)C[C@H](NC(=O)[C@H](CC(C)C)NC(=O)N1CCCCC1)C(=O)N[C@H](C(=O)N1CCN=C1COc1ccc(F)cc1)c1ccccc1 | Active
30 | CC(C)C[C@H](NC(=O)[C@H](CC(C)C)NC(=O)N1CCCCC1)C(=O)N[C@@H](Cc1c[nH]c2ccccc12)C(=O)N1CCN=C1COc1ccc(F)cc1 | Active

Tested on: Plasmodium falciparum
Experiment: Antimalarial activity against asexual stage Plasmodium falciparum assessed as morphological abnormalities after 32 to 46 hrs relative to control
Assay type: functional, organism-based
Settings: not given

Row | Compound | Activity
31 | CC(C)C[C@H](NC(=O)[C@H](CC(C)C)NC(=O)N1CCCCC1)C(=O)N[C@@H](Cc1c[nH]c2ccccc12)C(=O)N1CCN=C1COc1ccc(F)cc1 | Active

Tested on: Plasmodium falciparum
Experiment: Antimalarial activity against asexual stage Plasmodium falciparum assessed as abnormal food vacuole after 32 to 46 hrs relative to control
Assay type: functional, organism-based
Settings: not given

Row | Compound | Activity
32 | CC(C)C[C@H](NC(=O)[C@H](CC(C)C)NC(=O)N1CCCCC1)C(=O)N[C@@H](Cc1c[nH]c2ccccc12)C(=O)N1CCN=C1COc1ccc(F)cc1 | Active

Tested on: Plasmodium falciparum
Experiment: Antimalarial activity against asexual stage Plasmodium falciparum assessed as abnormal parasites after 60 hrs relative to control
Assay type: functional, organism-based
Settings: not given

Row | Compound | Activity
33 | CC(C)C[C@H](NC(=O)[C@H](CC(C)C)NC(=O)N1CCCCC1)C(=O)N[C@H](C(=O)N1CCN=C1COc1ccc(F)cc1)c1ccccc1 | Active
34 | CC(C)C[C@H](NC(=O)[C@H](CC(C)C)NC(=O)N1CCCCC1)C(=O)N[C@@H](Cc1c[nH]c2ccccc12)C(=O)N1CCN=C1COc1ccc(F)cc1 | Active

Tested on: CHO
Experiment: Cytotoxicity against CHO cells after 24 hrs by WST-1 assay
Assay type: cell-based
Settings: Cricetulus griseus

Row | Compound | IC50 [µM]
35 | CC(C)C[C@H](NC(=O)c1ccco1)C(=O)N[C@@H](CC(C)C)C(=O)N[C@@H](Cc1ccccc1)C(=O)NNc1ccccc1 | 114
36 | CC(C)C[C@H](NC(=O)[C@H](CC(C)C)NC(=O)N1CCOCC1)C(=O)N[C@@H](Cc1ccccc1)C(=O)N1CCC[C@H]1COc1ccc(F)cc1 | 53
37 | COC(=O)C1CCN(CC(=O)N[C@@H](CC(C)C)C(=O)N[C@@H](CC(C)C)C(=O)N[C@@H](Cc2c[nH]c3ccccc23)C(=O)N2CCC[C@H]2COc2ccc(F)cc2)CC1 | > 500
38 | CC(C)C[C@H](NC(=O)[C@H](CC(C)C)NC(=O)N1CCCCC1)C(=O)N[C@@H](Cc1c[nH]c2ccccc12)C(=O)N1CCN=C1COc1ccc(F)cc1 | > 468
